Results on 21 compounds are retold here after US20070021414A1, “1-'2-(4-Hydroxyphenyl)-2-hydroxyethyl!-piperidin-4-ol compounds as nmda receptor antagonists” (PFIZER, INC., priority 2003, published 2007).

Where a name gives a salt, the structure may show the parent alone.

For one data set, the target named is T1, HERG potassium channel (Homo sapiens, UniProt Q12809).
T1 construct: expressed in transfected cells; host or cells: HEK293S cells (membrane homogenate)
Put plainly: Human Dofetilide Binding. As to conditions: ratio of [3H]-dofetilide binding Ki (HERG transfected HEK293S membranes) to NR2B binding Ki. As for the experimental part: Human BERG transfected HEK293S cells were prepared and grown in-house. The collected cells were suspended in 50 mM Tris-HCl (pH 7.4 at 4° C.) and homogenized using a hand held Polytron PT 1200 disruptor set at full power for 20 sec on ice. The homogenates were centrifuged at 48,000×g at 4° C. for 20 min. The pellets were then resuspended, homogenized, and centrifuged once more in the same manner. The final pellets were resuspended in an appropriate volume of 50 mM Tris-HCl, 10 mM KCl, 1 mM MgCl2 (pH 7.4 at 4° C.), homogenized, aliquoted and stored at −80° C. until use. An aliquot of membrane fractions was used for protein concentration determination using BCA protein assay kit (PIERCE) and ARVOsx plate reader (Wallac).
Binding assays were conducted in a total volume of 200 μl in 96-well plates. Twenty μl of test compounds were incubated with 20 μl of [^3H]-dofetilide (Amersham, final 5 nM) and 160 μl of membrane homogenate (25 μg protein) for 60 minutes at room temperature. Nonspecific binding was determined by 10 μM dofetilide at the final concentration. Incubation was terminated by rapid vacuum filtration over 0.5% presoaked GF/B Betaplate filter using Skatron cell harvester with 50 mM Tris-HCl, 10 mM KCl, 1 mM MgCl2, pH 7.4 at 4° C. The filters were dried, put into sample bags and filled with Betaplate Scint. Radioactivity bound to filter was counted with Wallac Betaplate counter.

T1 sequence (Q12809 whole entry): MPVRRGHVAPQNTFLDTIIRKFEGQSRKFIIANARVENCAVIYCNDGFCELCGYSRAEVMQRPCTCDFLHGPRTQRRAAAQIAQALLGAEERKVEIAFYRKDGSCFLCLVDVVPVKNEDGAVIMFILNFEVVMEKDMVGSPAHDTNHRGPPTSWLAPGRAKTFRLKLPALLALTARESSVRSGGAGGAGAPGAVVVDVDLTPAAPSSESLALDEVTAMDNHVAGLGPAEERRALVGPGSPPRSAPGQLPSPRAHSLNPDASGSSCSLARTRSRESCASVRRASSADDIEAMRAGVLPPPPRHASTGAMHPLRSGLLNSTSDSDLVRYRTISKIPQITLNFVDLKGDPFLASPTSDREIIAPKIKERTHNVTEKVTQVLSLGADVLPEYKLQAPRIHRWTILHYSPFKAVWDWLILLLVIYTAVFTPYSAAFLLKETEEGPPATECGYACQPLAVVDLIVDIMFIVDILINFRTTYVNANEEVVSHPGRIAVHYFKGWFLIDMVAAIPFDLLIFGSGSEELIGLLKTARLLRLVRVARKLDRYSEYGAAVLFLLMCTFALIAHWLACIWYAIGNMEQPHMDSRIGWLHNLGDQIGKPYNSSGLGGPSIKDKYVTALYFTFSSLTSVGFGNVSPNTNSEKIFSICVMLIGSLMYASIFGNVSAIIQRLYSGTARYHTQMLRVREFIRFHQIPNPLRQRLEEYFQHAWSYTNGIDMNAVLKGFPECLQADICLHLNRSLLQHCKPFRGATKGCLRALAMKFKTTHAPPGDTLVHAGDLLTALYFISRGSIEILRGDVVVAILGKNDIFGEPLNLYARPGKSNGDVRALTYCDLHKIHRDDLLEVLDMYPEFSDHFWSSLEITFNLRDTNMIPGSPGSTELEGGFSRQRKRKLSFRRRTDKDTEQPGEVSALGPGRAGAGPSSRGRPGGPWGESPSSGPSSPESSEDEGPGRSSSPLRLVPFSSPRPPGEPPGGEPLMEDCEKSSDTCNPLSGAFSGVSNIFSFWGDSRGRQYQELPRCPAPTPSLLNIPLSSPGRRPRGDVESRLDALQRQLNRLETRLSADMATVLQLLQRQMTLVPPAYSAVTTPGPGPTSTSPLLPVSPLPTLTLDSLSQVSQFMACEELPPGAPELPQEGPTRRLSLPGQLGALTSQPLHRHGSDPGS

With `COc1ccc(C2(O)CCN(CC(O)c3ccc(O)c(C)c3)CC2)nc1F` (stereo not drawn), the melting point stood at 172.3 °C.
The same measure, in the same setting: then `Cc1cnc(C2(O)CCN(CC(O)c3ccc(O)c(C)c3)CC2)s1` (stereo not drawn), with 163.7 °C; and `Cc1cc(C(O)CN2CCC(O)(c3ccc4c(c3)COCC4)CC2)ccc1O` (stereo not drawn), with 178.3 °C; and `COc1ccc(C2(O)CCN(CC(O)c3ccc(O)cc3)CC2)cn1` (stereo not drawn), with 198.8 °C.
`COc1ccc(C2(O)CCN(CC(O)c3cc(C)c(O)cc3F)CC2)cn1` (stereo not drawn): the melting point was 183.6 °C.
In the case of `COc1ccc(C2(O)CCN(CC(O)c3cc(F)c(O)cc3F)CC2)cn1` (stereo not drawn) (as salt: hydrochloride), the melting point was determined as 199.5 °C.
On the same count and under the same terms, the result for `CCOc1ccc(C2(O)CCN(CC(O)c3ccc(O)c(C)c3)CC2)cn1` (stereo not drawn) reads 189.3 °C.
Same read-out and setting: the result for `Oc1ccc(C(O)CN2CCC(O)(c3cccc(F)c3)CC2)cc1` (stereo not drawn) reads 154.2 °C; that for `COCc1ccc(C2(O)CCN(CC(O)c3cc(C)c(O)cc3C)CC2)cc1` (stereo not drawn), 166.3 °C; that for `Cc1cc(C(O)CN2CCC(O)(c3cccc(F)c3)CC2)c(F)cc1O` (stereo not drawn), 161.7 °C.
Turning to `Cc1cc([C@H](O)[C@H](C)N2CCC(O)(c3ccc(F)cc3)CC2)ccc1O` [comparative compound A], the “TI (Dofetilide Binding Ki [μM]/NR2B Binding Ki [nM]×1000)” value at HERG potassium channel is reported as 220.
In the case of `COc1ccc(C2(O)CCN(CC(O)c3cc(C)c(O)cc3C)CC2)cn1` (stereo not drawn), the melting point was 156.5 °C.
In turn, `COc1ccc(C2(O)CCN(CC(O)c3ccc(O)cc3Cl)CC2)cn1` (stereo not drawn) had a melting point of 190.5 °C.
Still for that read-out and setting: then `COCc1ccc(C2(O)CCN(CC(O)c3ccc(O)c(C)c3)CC2)cc1` (stereo not drawn), with 164.4 °C; and `Oc1ccc(C(O)CN2CCC(O)(c3cccc(F)c3)CC2)c(F)c1` (stereo not drawn), with 186.1 °C.
In turn, `Oc1ccc(C(O)CN2CCC(O)(c3ccc4c(c3)COCC4)CC2)c(F)c1` (stereo not drawn) returned a melting point of 186.1 °C.
`COCc1ccc(C2(O)CCN(CC(O)c3ccc(O)cc3)CC2)cc1` (stereo not drawn): the melting point is 169.6 °C.
In the case of `COc1ccc(C2(O)CCN(CC(O)c3ccc(O)c(C)c3)CC2)cn1` (stereo not drawn), the melting point came to 176 °C.
Turning to `CCCOc1ccc(C2(O)CCN(CC(O)c3ccc(O)c(C)c3)CC2)cn1` (stereo not drawn), the melting point was determined as 187.4 °C.
In turn, `Oc1cc(F)c(C(O)CN2CCC(O)(c3cccc(F)c3)CC2)cc1F` (stereo not drawn) (as salt: hydrochloride) displayed a melting point of 207 °C.
Consider `COc1ccc(C2(O)CCN(CC(O)c3ccc(O)c(Cl)c3)CC2)cn1.Cl` (stereo not drawn), for which the melting point is 214.3 °C.

For orientation: melting point means the temperature of the solid-liquid transition.
